According to PubChem BioAssay AID2060887 (Molecular Pharmacology Branch, DTP, NCI, 2025):

Test system: 782815-120-R-J1-PDC complex spheroid viability
Test: Anticancer human tumor 782815-120-R-J1-PDC patient-derived colon adenocarcinoma cell line growth inhibition [RAS]
Settings: for IC50: curve of first compound; for viability, T/C: stronger effect = lower value
Method in brief: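 Tumour cells grown as complex spheroids with HUVEC endothelial cells and mesenchymal stem cells, treated with RAS pathway inhibitor combinations. Each agent spans half-log steps from near clinical Cmax, or 10 microM where Cmax is unknown.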
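Note: spheroids exposed to compounds for 7 days before reading.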
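Throughout, for viability, T/C: 100% = DMSO vehicle control viability.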

CC1(C)CCC(Nc2ncc(C(F)(F)F)c(-c3c[nH]c4c(P(C)(C)=O)c(C#N)ccc34)n2)CN1 (configuration not stated) + C=CC(=O)N1CCN(c2nc(OCC3CCCN3C)nc3c(F)c(-c4nc(N)cc(C)c4C(F)(F)F)c(Cl)cc23)C(C)C1
IC50 (second compound 0.00316 µM): > 300 nM | IC50 (second compound 0.01 µM): > 300 nM | IC50 (second compound 0.0316 µM): > 300 nM | IC50 (second compound 0.1 µM): > 300 nM | IC50 (second compound 0.316 µM): > 300 nM | IC50 (second compound 1 µM): 270 nM | viability, T/C (second compound 0.00316 µM, first compound 0.000949 µM): 106% | viability, T/C (second compound 0.00316 µM, first compound 0.003 µM): 113% | viability, T/C (second compound 0.00316 µM, first compound 0.00949 µM): 88.4% | viability, T/C (second compound 0.00316 µM, first compound 0.03 µM): 63.7% | viability, T/C (second compound 0.00316 µM, first compound 0.0949 µM): 68.8% | viability, T/C (second compound 0.00316 µM, first compound 0.3 µM): 58.3% | viability, T/C (second compound 0.01 µM, first compound 0.000949 µM): 97.7% | viability, T/C (second compound 0.01 µM, first compound 0.003 µM): 101% | viability, T/C (second compound 0.01 µM, first compound 0.00949 µM): 88.7% | viability, T/C (second compound 0.01 µM, first compound 0.03 µM): 72.9% | viability, T/C (second compound 0.01 µM, first compound 0.0949 µM): 49.5% | viability, T/C (second compound 0.01 µM, first compound 0.3 µM): 59.6% | viability, T/C (second compound 0.0316 µM, first compound 0.000949 µM): 107% | viability, T/C (second compound 0.0316 µM, first compound 0.003 µM): 103% | viability, T/C (second compound 0.0316 µM, first compound 0.00949 µM): 90.8% | viability, T/C (second compound 0.0316 µM, first compound 0.03 µM): 77.2% | viability, T/C (second compound 0.0316 µM, first compound 0.0949 µM): 57.8% | viability, T/C (second compound 0.0316 µM, first compound 0.3 µM): 52.3% | viability, T/C (second compound 0.1 µM, first compound 0.000949 µM): 107% | viability, T/C (second compound 0.1 µM, first compound 0.003 µM): 104% | viability, T/C (second compound 0.1 µM, first compound 0.00949 µM): 88.7% | viability, T/C (second compound 0.1 µM, first compound 0.03 µM): 68.2% | viability, T/C (second compound 0.1 µM, first compound 0.0949 µM): 55.5% | viability, T/C (second compound 0.1 µM, first compound 0.3 µM): 56.8% | viability, T/C (second compound 0.316 µM, first compound 0.000949 µM): 103% | viability, T/C (second compound 0.316 µM, first compound 0.003 µM): 97.2% | viability, T/C (second compound 0.316 µM, first compound 0.00949 µM): 90.9% | viability, T/C (second compound 0.316 µM, first compound 0.03 µM): 67.2% | viability, T/C (second compound 0.316 µM, first compound 0.0949 µM): 77.3% | viability, T/C (second compound 0.316 µM, first compound 0.3 µM): 55.3% | viability, T/C (second compound 1 µM, first compound 0.000949 µM): 120% | viability, T/C (second compound 1 µM, first compound 0.003 µM): 97.1% | viability, T/C (second compound 1 µM, first compound 0.00949 µM): 85.8% | viability, T/C (second compound 1 µM, first compound 0.03 µM): 63.3% | viability, T/C (second compound 1 µM, first compound 0.0949 µM): 65.2% | viability, T/C (second compound 1 µM, first compound 0.3 µM): 53.3%
